The source of these data is a melting point compilation (Tetko et al.; mined from patent text by program, amines drawn as free bases though some values may be those of a salt).

SMILES strings stand for the structures. Where only a bound is given, the exact number is not on record here.

Broadly, the melting point is the temperature, or range, at which the solid turns liquid. For `COc1ccc(/C=C/C(=O)N2CCN(C(=O)c3cc(C(F)(F)F)cc(C(F)(F)F)c3)[C@H](Cc3ccc(C)c(C)c3)C2)cc1`, the melting point is 67 to 76 °C.

Regarding `CCOC(=O)C(=O)c1cn(Cc2ccccc2)c2cc(-c3ccc(C(F)(F)F)cc3)ccc12`, the melting point fell in the range of 109 to 110 °C.

`CON1CCC(CC2NC(=O)C(c3cc(C)ccc3C)=C2O)CC1` (centres undefined): the melting point is 116 to 119 °C.

`N#Cc1cc([N+](=O)[O-])cc(C#N)c1O` yielded a melting point of 228 to 231 °C.

As to `Fc1ccc(CN2CCN(C3CC=C(c4ccc(C(F)(F)F)cc4)CC3)CC2)cc1` (centres undefined), the melting point was in the range of 108 to 109 °C.

The compound `CCCCCCCOc1ccc2c(c1)Nc1cccc(S(=O)(=O)N(C)C)c1S2` yielded a melting point of 160 to 162 °C.

`CCCOc1ccc(S(=O)(=O)N2CCN(CC)CC2)cc1C(=O)O` displayed a melting point of 143 to 145 °C.

For `CC1(C)COc2cc(Cl)c(Cl)cc2C(O)(c2ccccn2)C1` (centres undefined), the melting point came out at 128 °C.

The compound `CC1(C)NC(=O)N(CC#CI)C1=O` displayed a melting point of 118 to 126 °C.

`CNc1nc(Nc2ccccc2C)c2cccc(OC)c2n1` displayed a melting point of 190 to 192 °C.

`Cc1cc([N+](=O)[O-])ccc1NC(=O)n1nc(Oc2cccc(C(F)(F)F)c2)cc1C` had a melting point of 165 to 166 °C.

Take `O=c1ccc2nc3ccccc3sc-2c1Cl`: the melting point amounted to 221 °C.

On to `CC(=O)OCC1OC(n2cc(C)c(-n3cncn3)nc2=O)CC1N=[N+]=[N-]` (centres undefined), for which the melting point fell in the range of 143 to 145 °C.

In turn, `Cc1c(C(=O)Cl)cccc1[N+](=O)[O-]` yielded a melting point of 68 to 70 °C.

For the compound `Cc1nc(N2C(=O)N(Cc3ccc(F)cc3)C[C@@H]2C)sc1C(N)=O`, the melting point lay in the range of 197 to 198 °C.

For `O=c1[nH]c2cc(-c3ccncc3)c(C(F)(F)F)nc2[nH]1`, the melting point is above 300 °C.

Consider `Nc1c(Cl)ncnc1Nn1cccc1`, for which the melting point lay in the range of 130 to 132 °C.

For `CC1Cc2c(F)cc(F)cc2C1=O` (centres undefined), the melting point lay in the range of 68 to 69 °C.

As for `O=C1CC[N+]([O-])=C(c2ccccc2F)c2cc(Cl)ccc21`, the melting point is 166 to 168 °C.

Consider `N#Cc1cc([N+](=O)[O-])ccc1C=C1C=CN(Cc2ccccc2[N+](=O)[O-])C=C1`, for which the melting point is 193 to 201 °C.

The compound `COc1cc2c(c(OC)c1OC)-c1ccc(SC)c(=O)cc1C(N)CC2` (centres undefined) returned a melting point of 168 to 170 °C.

`c1cc(-c2cnco2)cc(-c2ncc(-c3cccc(-c4cnc(-c5cccc(-c6cnco6)c5)o4)n3)o2)c1` showed a melting point of 254 to 256 °C.

Compound `CN1c2ccc(Cl)cc2C(c2ccccc2F)=Nc2cccnc21` displayed a melting point of 136 to 138 °C.

The compound `Cc1nc(Sc2ncccc2CC(=O)O)sc1CC(=O)O` registered a melting point of 172 to 174 °C.

In the case of `COCCNC(=O)c1cccc(-c2cccc3cc(Cc4cccc(Cl)c4)sc23)c1`, the melting point was 120 to 134 °C.

Compound `O=C(Nc1ccncc1)Nc1ccc(-c2nc(N3CCOCC3)c3nnn(C4CCOCC4)c3n2)cc1` gave a melting point of 332 °C.

In turn, `O=C(NCc1ccccn1)Nc1cc(N2CC3(CCCCC3)CC2=O)ccn1` came in with a melting point of 191 to 192 °C.

For `CCCc1c(C(=O)NCc2ccc3c(Br)c(OCC(=O)O)ccc3c2)cnn1-c1ccccc1`, the melting point is 140 to 145 °C.

`COc1ccc(C(C)=NOCc2ccc([N+](=O)[O-])cc2)cc1F`: the melting point was 67 to 68 °C.

The compound `COc1ccc(-c2cc(C=CC(=O)O)cs2)cc1C(C)(C)C` registered a melting point of 197 to 198 °C.

Turning to `CC(C)c1cc(C(C)C)c(NC(=O)CN2CCN(CCSc3nc4ccccc4[nH]3)CC2)c(C(C)C)c1`, the melting point was in the range of 217 to 218 °C.

`Cc1oc(-c2ccc(C(N)=O)cc2)nc1CCOc1ccc(OC(C)(C)C(=O)O)cc1` displayed a melting point of 126 to 127 °C.

Turning to `CCCCNC(=O)NS(=O)(=O)c1c(Cl)cccc1-c1ccccc1`, the melting point was 184 to 186 °C.

For `O=C1NCCc2cc(F)ccc21`, the melting point is 107 to 108 °C.
